Test results reported in ChEMBL document CHEMBL1154158, “Synthesis and antitumoral activity of novel thiazolobenzotriazole, thiazoloindolo[3,2-c]quinoline and quinolinoquinoline derivatives” (Eur J Med Chem, 2009).
Active and inactive are the calls of the source. No cut-off for these calls is given here.

What was measured:
MDA-MB-231 = assay: Growth inhibition of human MDA-MB-231 cells at 10 uM after 72 hrs by MTT assay; assay type: functional; details: MDA-MB-231, 72 h
MCF7 = assay: Growth inhibition of human MCF7 cells at 10 uM after 72 hrs by MTT assay; assay type: functional; details: MCF7, 72 h
Calf thymus DNA = assay: Binding affinity to calf thymus DNA assessed as change in melting temperature at [compound]/[polynucleotide] ratio of 1; assay type: nucleic-acid assay; details: Bos taurus
Nucleic Acid = assay: Binding affinity to poly(dAT)2 assessed as change in melting temperature at [compound]/[polynucleotide] ratio of 1 at pH 7.1; assay type: nucleic-acid assay
HL-60 [1] = assay: Cytotoxicity against human HL60 cells after 72 hrs; assay type: functional, cell-based; details: HL-60, 72 h
HL-60 [2] = assay: Cytotoxicity against human mitoxantrone-resistant HL60 cells after 72 hrs; assay type: functional, cell-based; details: HL-60, 72 h
[3] = target: DNA topoisomerase 2-alpha (Homo sapiens) (UniProt P11388); assay: Inhibition of human topoisomerase 2-mediated DNA cleavage
Sequence of DNA topoisomerase 2-alpha (Homo sapiens) (P11388 whole entry): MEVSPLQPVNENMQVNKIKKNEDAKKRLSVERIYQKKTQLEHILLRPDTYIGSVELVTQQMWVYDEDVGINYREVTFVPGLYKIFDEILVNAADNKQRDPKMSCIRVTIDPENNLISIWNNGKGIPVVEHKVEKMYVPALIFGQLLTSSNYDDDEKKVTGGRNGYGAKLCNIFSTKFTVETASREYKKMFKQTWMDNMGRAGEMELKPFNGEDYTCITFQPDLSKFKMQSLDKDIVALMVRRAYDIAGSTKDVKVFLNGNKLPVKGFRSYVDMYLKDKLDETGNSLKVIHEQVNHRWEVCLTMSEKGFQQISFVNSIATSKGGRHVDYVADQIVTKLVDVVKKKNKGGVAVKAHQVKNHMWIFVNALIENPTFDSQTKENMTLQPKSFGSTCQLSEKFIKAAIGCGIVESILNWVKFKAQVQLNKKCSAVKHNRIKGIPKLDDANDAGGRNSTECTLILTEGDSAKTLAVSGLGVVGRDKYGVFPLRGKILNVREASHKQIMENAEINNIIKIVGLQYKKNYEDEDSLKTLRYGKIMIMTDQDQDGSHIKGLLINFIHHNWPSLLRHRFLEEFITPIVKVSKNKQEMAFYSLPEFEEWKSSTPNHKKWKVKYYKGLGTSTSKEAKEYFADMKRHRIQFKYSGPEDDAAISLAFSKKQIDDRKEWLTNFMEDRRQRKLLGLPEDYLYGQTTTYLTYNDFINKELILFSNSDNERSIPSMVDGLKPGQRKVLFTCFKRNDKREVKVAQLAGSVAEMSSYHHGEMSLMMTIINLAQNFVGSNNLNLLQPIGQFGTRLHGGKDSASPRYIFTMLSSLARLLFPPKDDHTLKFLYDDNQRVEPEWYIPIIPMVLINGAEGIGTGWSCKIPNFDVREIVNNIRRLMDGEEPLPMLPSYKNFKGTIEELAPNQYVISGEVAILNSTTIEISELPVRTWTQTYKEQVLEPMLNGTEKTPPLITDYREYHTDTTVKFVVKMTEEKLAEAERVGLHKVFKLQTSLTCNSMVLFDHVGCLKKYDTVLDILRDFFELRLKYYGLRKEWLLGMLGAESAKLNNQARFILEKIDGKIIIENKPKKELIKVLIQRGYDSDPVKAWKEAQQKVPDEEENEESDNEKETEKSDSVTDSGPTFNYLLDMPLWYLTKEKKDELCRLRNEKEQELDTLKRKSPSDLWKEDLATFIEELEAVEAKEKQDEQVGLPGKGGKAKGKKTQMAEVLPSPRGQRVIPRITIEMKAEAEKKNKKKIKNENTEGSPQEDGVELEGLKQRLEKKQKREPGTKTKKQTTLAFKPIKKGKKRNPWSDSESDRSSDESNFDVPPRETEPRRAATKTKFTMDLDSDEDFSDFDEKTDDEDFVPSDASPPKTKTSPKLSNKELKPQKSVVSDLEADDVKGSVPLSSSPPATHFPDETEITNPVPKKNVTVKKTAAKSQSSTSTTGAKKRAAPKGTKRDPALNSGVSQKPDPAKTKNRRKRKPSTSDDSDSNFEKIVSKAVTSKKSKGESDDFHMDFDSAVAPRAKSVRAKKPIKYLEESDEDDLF

SMILES	inhibition at 10 µM (MDA-MB-231) [%]	inhibition at 10 µM (MCF7) [%]	further results
c1ccc2nc(-n3nnc4c5sc(C6=NCCN6)nc5ccc43)ccc2c1	28.5	41.3	
c1cc(-n2nnc3c4sc(C5=NCCN5)nc4ccc32)ccn1	56.4	51.1	
Cc1cc(-n2nnc3c4sc(C#N)nc4ccc32)c2ccccc2n1	91.9	87.2	
N#Cc1nc2ccc3c(nnn3-c3ccnc4ccccc34)c2s1	32.4	34.9	
c1ccc2c(-n3nnc4c5sc(C6=NCCN6)nc5ccc43)ccnc2c1	97.3	95.6	
N#Cc1nc2ccc3c(nnn3-c3ccc4ccccc4n3)c2s1	19.8	30.4	
Cc1cc(-n2nnc3c4sc(C5=NCCN5)nc4ccc32)c2ccccc2n1	97.4	98.9	
Nc1ccc2[nH]c3c4ccccc4ncc3c2c1	85.7	73.5	
CC(=O)Nc1ccc2c(c1)-c1cccc3nccc(c13)N2			ΔTm (Calf thymus DNA): 14.5 °C; ΔTm (Nucleic Acid): 24.5 °C; IC50 (HL-60 [1]): 4.6 µM; IC50 (HL-60 [2]): 5.5 µM
CC[C@@]1(O)C(=O)OCc2c1cc1n(c2=O)Cc2cc3ccccc3nc2-1			inhibition [3]: inactive
c1ccc2c(c1)ncc1c2[nH]c2ccc3ncsc3c21			ΔTm (Calf thymus DNA): 7.2 °C; ΔTm (Nucleic Acid): 12.7 °C; IC50 (HL-60 [1]): 17.2 µM; IC50 (HL-60 [2]): 22.6 µM
N#Cc1nc2ccc3c(nnn3-c3ccncc3)c2s1	87.4	95.5	
